Results on 17 compounds are retold here after PubChem BioAssay (NCI).

Each structure is given as a SMILES string. “And” between values parts separate entries of the source, which are not always exact repeats. Equal entries are not always repeated.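 Briefly, cells in 96-well plates were exposed to five compound concentrations for 48 h, and endpoints were estimated by linear interpolation. The concentration for 50% growth inhibition is given as GI50. TGI denotes the concentration required for complete inhibition of growth.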

Test systems include 786-0 renal; CAKI-1 renal; DU-145 prostate; HCT-116 colon; MALME-3M melanoma; NCI-H226 lung; NCI-H460 lung; PC-3 prostate; SR leukemia; SW-620 colon; U251 CNS; UACC-257 melanoma.
Common to all, as to test: growth of human tumour cells (NCI), 48 h

With `COc1ccc(C(=O)Cn2c(C(C)=O)nc3ccccc32)cc1`, the TGI with 786-0 renal is 33.7 µM; with CAKI-1 renal, over 100 µM; in the assay on DU-145 prostate it was over 100 µM; with HCT-116 colon it was over 100 µM; with MALME-3M melanoma it was over 100 µM; with NCI-H226 lung it was over 100 µM. Moreover, the TGI in the assay on NCI-H460 lung was over 61.7 µM; in the assay on PC-3 prostate it was over 100 µM; in the assay with SR leukemia, over 100 µM; with SW-620 colon, over 100 µM; with U251 CNS, 31.8 µM; with UACC-257 melanoma it was over 100 µM.
Regarding `O=C(O)CSc1nnc(CCCCCCCCc2nnc(SCC(=O)O)o2)o1`, the TGI in the assay on 786-0 renal, in the assay on CAKI-1 renal, in the assay with DU-145 prostate, with HCT-116 colon, in the assay with MALME-3M melanoma and in the assay with NCI-H226 lung was over 100 µM in each case. Also, the TGI with NCI-H460 lung, in the assay with PC-3 prostate, with SR leukemia, with SW-620 colon, with U251 CNS and in the assay on UACC-257 melanoma was over 100 µM in each case.
Turning to `COc1ccc(N2CCN(Cc3c(C(C)=O)[n+](=O)c4ccccc4n3[O-])CC2)cc1`, the TGI is over 100 µM in the assay with 786-0 renal; over 100 µM in the assay on CAKI-1 renal; over 100 µM in the assay on DU-145 prostate; over 100 µM in the assay on HCT-116 colon; 60.6 µM in the assay with MALME-3M melanoma; over 100 µM in the assay with NCI-H226 lung. The TGI with NCI-H460 lung, in the assay with PC-3 prostate, with SR leukemia, in the assay on SW-620 colon, in the assay on U251 CNS and in the assay with UACC-257 melanoma was over 100 µM throughout.
For `CC1(C)CCCCCC(C)(CCCCCCCCCCCO)C1=O` (stereo unspecified), the TGI is 29.8 µM in the assay with 786-0 renal; 28.6 µM in the assay on CAKI-1 renal; 31.8 µM with DU-145 prostate; 28.8 µM in the assay with HCT-116 colon; 29.8 µM with MALME-3M melanoma; 32.3 µM with NCI-H226 lung. Besides, the TGI in the assay with NCI-H460 lung is 31.9 µM; in the assay with PC-3 prostate, 30 µM; in the assay with SR leukemia, 14.3 µM; in the assay on SW-620 colon, 32.9 µM; in the assay on U251 CNS it was 31.1 µM; in the assay with UACC-257 melanoma, 27 µM.
`O=NNc1cnccn1`: the TGI with 786-0 renal, with CAKI-1 renal, in the assay with DU-145 prostate, in the assay on HCT-116 colon, in the assay with MALME-3M melanoma and in the assay with NCI-H226 lung was over 1250 µM throughout. Besides, the TGI with NCI-H460 lung is over 1250 µM; in the assay on PC-3 prostate, over 1250 µM; with SR leukemia, over 1110 µM; in the assay with SW-620 colon, over 1250 µM; in the assay with U251 CNS, over 1250 µM; with UACC-257 melanoma it was over 1250 µM.
Turning to `CC(=O)O[C@H]1CC[C@H]2[C@@H]3CCC4=C(C(=O)C=CC4(C)OC(C)=O)[C@H]3CC[C@]12C` (stereo partly specified), the TGI with 786-0 renal, in the assay with CAKI-1 renal, in the assay with DU-145 prostate, with HCT-116 colon, with MALME-3M melanoma and with NCI-H226 lung was over 100 µM in each case. Moreover, the TGI in the assay with NCI-H460 lung, with PC-3 prostate, in the assay with SR leukemia, in the assay with SW-620 colon, in the assay on U251 CNS and in the assay on UACC-257 melanoma was over 100 µM each time.
Take `Cc1nn(-c2ccccc2)c2c1C(c1cc3ccccc3nc1Cl)NC(=S)N2` (stereo unspecified): the TGI in the assay with 786-0 renal, in the assay with CAKI-1 renal, in the assay with DU-145 prostate, with HCT-116 colon, in the assay with MALME-3M melanoma and in the assay on NCI-H226 lung was over 100 µM in each case. For the same compound, the TGI with NCI-H460 lung is over 100 µM; in the assay on PC-3 prostate, over 100 µM; in the assay with SR leukemia it was over 100 µM; with SW-620 colon, 98.4 µM; with U251 CNS it was 83 µM; in the assay with UACC-257 melanoma, over 100 µM.
On to `O=C(Nc1nncs1)NS(=O)(=O)n1cnc2ccccc21`, for which the TGI with 786-0 renal, in the assay on CAKI-1 renal, with DU-145 prostate, in the assay with HCT-116 colon, with MALME-3M melanoma and in the assay with NCI-H226 lung was over 100 µM each time. In addition, the TGI with NCI-H460 lung, in the assay with PC-3 prostate, in the assay on SR leukemia, in the assay with SW-620 colon, in the assay on U251 CNS and in the assay on UACC-257 melanoma was over 100 µM throughout.
`O=C1c2ccccc2C(=O)c2c1oc(=O)c1ccccc21`: the TGI with 786-0 renal was 14 µM; in the assay on CAKI-1 renal, 15.5 µM; with DU-145 prostate, 14 µM; in the assay on HCT-116 colon, 4.27 µM; in the assay with MALME-3M melanoma, 5.79 µM; in the assay on NCI-H226 lung, 21.2 µM. For the same compound, the TGI in the assay with NCI-H460 lung was 10.9 µM; in the assay on PC-3 prostate it was 19.2 µM; in the assay on SR leukemia it was 21.3 µM; in the assay with SW-620 colon, over 25 µM; in the assay on U251 CNS, 12.2 µM; in the assay with UACC-257 melanoma, 6.75 µM.
With `c1nc(SSc2ncnc3nc[nH]c23)c2[nH]cnc2n1`, the TGI in the assay with 786-0 renal was over 100 µM; in the assay on CAKI-1 renal it was 1.07 µM; with DU-145 prostate, over 100 µM; with HCT-116 colon it was over 100 µM; in the assay with MALME-3M melanoma, 18.5 µM; with NCI-H226 lung it was over 100 µM. Besides, the TGI in the assay on NCI-H460 lung is over 100 µM; in the assay on PC-3 prostate, over 100 µM; with SR leukemia, over 41.6 µM; with SW-620 colon it was over 100 µM; with U251 CNS it was over 100 µM; in the assay on UACC-257 melanoma, over 100 µM.
With `COCC(=O)OC1CCn2c1nc1c2C(=O)C(C)=C(NC(C)=O)C1=N` (stereo unspecified), the TGI in the assay on 786-0 renal was found to be 9.3 µM; in the assay with CAKI-1 renal it was 23.2 µM; with DU-145 prostate it was 36.7 µM; with HCT-116 colon it was 11.4 µM; in the assay on MALME-3M melanoma, 2.7 µM; in the assay with NCI-H226 lung it was 33.2 µM. The TGI in the assay on NCI-H460 lung came out at 31 µM; in the assay with PC-3 prostate it was 9.01 µM; in the assay with SR leukemia, 7.52 µM; in the assay with SW-620 colon it was 6.12 µM; in the assay on U251 CNS, 17.9 µM; with UACC-257 melanoma it was 8.23 µM.
As for `Cc1ccc(S(=O)C[C@@]2(C(F)F)NC(=O)NC2=O)cc1` (stereo partly specified), the TGI in the assay with 786-0 renal, in the assay on CAKI-1 renal, with DU-145 prostate, in the assay on HCT-116 colon, in the assay with MALME-3M melanoma and with NCI-H226 lung was over 100 µM in each case. Further, the TGI with NCI-H460 lung, with PC-3 prostate, in the assay with SR leukemia, in the assay with SW-620 colon, with U251 CNS and in the assay on UACC-257 melanoma was over 100 µM in each case.
With `CC(=O)Nc1ccc(S(=O)(=O)[N-]C2C(=O)c3ccccc3C(=O)C2[n+]2ccccc2)cc1` (stereo unspecified), the TGI in the assay on 786-0 renal is over 100 µM; with CAKI-1 renal it was over 100 µM; in the assay on DU-145 prostate, over 100 µM; with HCT-116 colon, over 100 µM; in the assay with MALME-3M melanoma, 25.1 µM; in the assay on NCI-H226 lung, over 100 µM. Besides, the TGI is 86.3 µM in the assay with NCI-H460 lung; 46.1 µM with PC-3 prostate; 42.1 µM in the assay with SR leukemia; 32.9 µM in the assay with SW-620 colon; 27.3 µM with U251 CNS; 29.5 µM in the assay on UACC-257 melanoma.
For `COc1cc(/C=C/c2sc3ccccc3[n+]2C)ccc1N(C)C`, the TGI in the assay with 786-0 renal is 24.8 µM; with CAKI-1 renal it was over 100 µM; in the assay with DU-145 prostate it was 35 µM; in the assay on HCT-116 colon, 17.9 µM; in the assay on MALME-3M melanoma, 19.8 µM; in the assay with NCI-H226 lung, 50.6 µM. In addition, the TGI in the assay with NCI-H460 lung is 38 µM; in the assay with PC-3 prostate, 32.3 µM; in the assay with SR leukemia, 7.71 µM and 36.3 µM; in the assay on SW-620 colon, 25.8 µM; with U251 CNS, 21.8 µM; in the assay on UACC-257 melanoma it was 22.9 µM. In addition, the GI50 in the assay on HCT-116 colon is 6.05 µM; in the assay on MALME-3M melanoma, 5.85 µM; in the assay with NCI-H460 lung it was 13.4 µM; in the assay with PC-3 prostate, 12.8 µM; in the assay with SR leukemia it was 6.85 µM; in the assay on U251 CNS, 8.06 µM. Further, the GI50 with UACC-257 melanoma was 8.32 µM.
Consider `O=Cc1[nH]c(=O)[nH]c(=O)c1CCl`, for which the TGI in the assay with 786-0 renal, in the assay with CAKI-1 renal, in the assay on DU-145 prostate, with HCT-116 colon, in the assay with MALME-3M melanoma and in the assay on NCI-H226 lung was over 100 µM throughout. Further, the TGI was 99.5 µM in the assay on NCI-H460 lung; over 100 µM with PC-3 prostate; 57.7 µM with SR leukemia; over 100 µM in the assay with SW-620 colon; over 100 µM with U251 CNS; over 100 µM in the assay with UACC-257 melanoma.
Consider `CC(=O)N1CC[N+](C)(CCCCN2c3ccccc3Sc3cc(N=[N+]=[N-])ccc32)CC1`, for which the TGI in the assay on 786-0 renal, in the assay with CAKI-1 renal, in the assay with DU-145 prostate, in the assay on HCT-116 colon, in the assay with MALME-3M melanoma and with NCI-H226 lung was over 100 µM each time. In addition, the TGI in the assay on NCI-H460 lung, in the assay on PC-3 prostate, in the assay on SR leukemia, with SW-620 colon, in the assay on U251 CNS and in the assay on UACC-257 melanoma was over 100 µM each time.
For `CCN(CC)CCNc1ccc2ncn3c4c(OC)cccc4c(=O)c1c23`, the TGI with 786-0 renal was 75 µM; with CAKI-1 renal, over 100 µM; in the assay on DU-145 prostate, 24.2 µM; with HCT-116 colon, 10.1 µM; in the assay on MALME-3M melanoma, 21.4 µM; in the assay on NCI-H226 lung it was 20.8 µM. In addition, the TGI in the assay on NCI-H460 lung worked out at 15.2 µM; with PC-3 prostate it was 17.6 µM; with SR leukemia it was 20.8 µM; with SW-620 colon, 15.9 µM; with U251 CNS, 19.3 µM; with UACC-257 melanoma, 69.2 µM.
